Data: US20230009323A1, “COMPOUNDS AND METHODS FOR THE TREATMENT OF CRYPTOSPORIDIOSIS” (The Broad Institute, Inc., priority 2019, published 2023)
Read-outs that look alike come from different tables or passages of the source.

What was measured:
[1] = system: C. parvum WT transgenic PheRS (wtL482); assay: In vitro drug susceptibility in HCT-8 cells, luminescence, wild type transgenic; assay type: cell-based; conditions: Cryptosporidium parvum, HCT-8, 48 h, read-out: EC50, wild type transgenic
Protocol: (§1) The in vitro drug susceptibility assay using transgenic parasites expressing Nluc was performed as described in Vinyak et al. Briefly, host intestinal epithelial adenocarcinoma (HCT-8) cells grown in 96-well plates were infected with purified transgenic Nluc-expressing oocysts (1,000 oocysts per well) and incubated with different concentrations of Compound 11 for 48 hours. Culture supernatant was discarded from the wells after 48 hours, and 200 μl of NanoGlo lysis buffer containing 1:50 of NanoGlo substrate (Promega) was added to the wells. Lysates were transferred to white 96-well plates and luminescence was measured on a Glomax luminescence reader (Promega). EC50 values were calculated in GraphPad Prism software v7.
(§2) Oocysts from the mutant (mut482V) and wild type (wtL482) transgenic lines were purified as well as the parent strain (Bunchgrass) used to generate the transgenics. Sporozoites were excised from these oocysts and used to infect 96 well format HCT-8 cultures to perform in vitro drug susceptibility assays. Cultures were incubated for 48 hours in the presence of varying concentrations of Compound 11 and parasite growth was measured by establishing whole well luciferase activity to calculate EC50 values for each strain.

[2] = system: C. parvum parental WT (Bunchgrass); assay: In vitro drug susceptibility in HCT-8 cells, luminescence, parent strain; assay type: cell-based; conditions: Cryptosporidium parvum; 48 h, HCT-8, luciferase activity
Protocol: as §1, §2

[3] = system: C. parvum Iowa isolate (Bunch Grass Farm); assay: C. parvum Iowa isolate (Bunch Grass Farm) growth in HCT-8 cells, high-content microscopy; assay type: cell-based; conditions: Cryptosporidium parvum
Protocol: A high-content microscopy assay was used to measure activity of compounds against C. parvum grown in the human adenocarcinoma cell line HCT-8 (ATCC) as disclosed in Bessoff, K., et al., Antimicrobial agents and chemotherapy 57, 1804-1814, doi:10.1128/AAC.02460-12 (2013), hereby incorporated by reference in its entirety. HCT-8 cells were cultured in 384-well clear-bottomed plates in 50 μL per well of RPMI 1640 medium ([…]), 120 U·mL^−1 penicillin, and 120 μg·mL^−1 streptomycin (ATCC) at 37° C. under 5% CO2. For compound screening and follow-up SAR studies, confluent cell monolayers were infected with C. parvum Iowa isolate oocysts [Bunch Grass Farm (Deary, Id.); ˜5,500 oocysts per well] after inducing excystation by treatment for 10 min at 37° C. with 10 mM HCl and then 10 min at 16° C. in 2 mM sodium taurocholate. Compounds were added at the indicated concentrations 3 h after monolayer infection. After incubation (37° C., 5% CO2) for 48 h, the cells were washed three times with PBS containing 111 mM D-Galactose and fixed by adding an equal volume of 8% formaldehyde in PBS. Cell monolayers were then prepared for microscopy by permeabilizing with 0.1% Triton X-100, washing three times with PBS with 0.1% Tween 20, blocking with 4% bovine serum albumin (BSA) in PBS for 2 h at 37° C. or 4° C. overnight, and staining parasitophorous vacuoles with 1.33 μg·mL^−1 of fluorescein-labeled Vicia villosa lectin (Vector Laboratories) diluted in 1% BSA in PBS with 0.1% Tween 20 for 1 h at 37° C. DNA was then stained by adding Hoechst 33258 (AnaSpec) at a final concentration of 0.09 mM diluted in water, followed by washing five times with PBS containing 0.1% Tween 20. Images were acquired using a Nikon Eclipse TE2000 epifluorescence microscope with an automated stage that was programmed using NIS-Elements Advanced Research software (Nikon) to focus on the center of each well and take a 3×3 composite image using an EXi Blue fluorescence microscopy camera (QImaging) with a 20× objective (numerical aperture 0.45). Nucleus and parasite images were exported separately as tif files and analyzed using NIH ImageJ and previously reported macros, and data analysis and graphing were done using GraphPad Prism software, version 6.01. […]

C. parvum [4] = assay: Asexual growth vs DMC1 sexual differentiation assay; assay type: cell-based, Cryptosporidium parvum
Protocol: The effect on expression of the meiotic recombination protein DMC1 was previously identified as a sexual stage-specific marker for C. parvum. The potency of Compound 11 for inhibiting asexual development during the first 48 h of infection was compared to its potency at inhibiting DMC1 expression when compound was added after 48 h of culture (the approximate timing of sexual differentiation). In addition to staining for parasites with FITC-Vicia villosa lectin and DNA with Hoechst as above, samples were stained for the presence of DMC1 with an anti-C. parvum DMC1 mouse monoclonal antibody (clone 1H10G7 (IgG2b, kappa) used as undiluted culture medium with a secondary Alexa Fluor 568 goat anti-mouse IgG antibody (Invitrogen) at 1:500 dilution. Cultures were performed in 384-well plates with the addition of amphotericin B (Sigma, catalog) to the culture medium at 0.1 to 0.5 μg·mL^−1 for these assays. Images were acquired as above, and analyzed using NIH ImageJ software.

C. hominis (TU 502) = assay: C. hominis TU502 growth in HCT-8 cells; assay type: cell-based; conditions: Cryptosporidium hominis
Protocol: Studies using farm C. parvum isolates and the C. hominis TU502 isolate were performed by Calibr at Scripps Research (La Jolla, Calif.) in 1,536-well plates using a slightly modified immunofluorescence assay as described in Love, M. S. et al. PLoS neglected tropical diseases 11, e0005373, doi:10.1371/journal.pntd.0005373 (2017), hereby incorporated by reference in its entirety. HCT-8 cell culture medium was replaced with RPMI 1640 medium supplemented with 2% heat-inactivated horse serum, 100 U·mL^−1 penicillin, and […] 24 h prior to infection with the indicated isolate. The C. parvum Iowa isolate was included as a reference in all experiments. Imaging was performed using a Cellnsight CX5 High Content screening platform (Thermo Scientific) with a 10× objective and acquisition of one microscopic field per well. Images were processed using HCS Studio Scan software, and the selected-object count (HCT-8 cells) and spot count (parasitophorous vacuoles) were analyzed in Genedata Screener (version 13.0; Standard). Dose-response curves and EC50 values were calculated using the Smart Fit function of Genedata Analyzer.

HEK293T cytotoxicity = assay type: cell-based; conditions: human, HEK293T cells
C. parvum [5] = assay: Host cell invasion assay; assay type: cell-based, Cryptosporidium parvum

For `COc1ccc(NC(=O)N2CCCCN3[C@H](CN(C)C)[C@H](c4ccc(C#Cc5ccccc5)cc4)[C@@H]3C2)cc1` [Compound 11, (8R,9S,10S)-10-((dimethylamino)methyl)-N-(4-methoxyphenyl)-9-(4-(phenylethynyl)phenyl)-1,6-diazabicyclo[6.2.0]decane-6-carboxamide], the EC50 [1] was 47 nM, the EC50 [2] was 29 nM and the EC50 ([3]; read-out: C. parvum (Iowa) (1% FBS) BGF EC50) was 9 nM. The EC50 ([3]; read-out: C. parvum (Iowa) (10% FBS) BGF EC50) was 73 nM, the EC50 ([3]; serum not given, read-out: C. parvum EC50) was less than 73 nM and the “potency on asexual growth (0-48 h) vs DMC1 expression (48-72 h)” value (C. parvum [4]) was “approximately equipotent”. For the same molecule, the EC50 (C. hominis (TU 502)) was 10 nM, the CC50 (HEK293T cytotoxicity) was 5000 nM and the “effect on host cell invasion” value (C. parvum [5]) was “No effect”.
